Experimental data: US9943500B2, “Methods of treating topical microbial infections” (LUODA PHARMA PTY LIMITED, priority 2013, dated 2018)

Columns and labels:
[1] = system: ATCC 49775 reference strain; experiment: Microdilution time-kill assay (optical density); settings: 48 hour period; one, four and eight times the MIC
Procedure: Time-kill assays were performed according to the M26-A guidelines of the CLSI, with modifications. The test compounds and ampicillin were serial diluted in CAMHB across the rows of a 96 well plate and a bacterial suspension was prepared and added in the same manner as the MIC testing. The 96 well plates were then incubated at 37° C. for 48 hours being removed at specific time points and OD for the positive control wells as well as one, four and eight times the MIC of the compound specific to the strain being tested were assessed using a spectrophotometer at a wavelength of 600 nm. The time points assessed were 0, 1, 2, 4, 8, 12, 24 and 48 hours after the addition of the bacterial suspension to the wells. Each test compound was tested in triplicate while ampicillin was tested in duplicate and this test was independently repeated. […] One strain from each of the categories of Staphylococcus in the isolate collection (methicillin-sensitive, methicillin resistant and coagulase negative) were selected as well as the ATCC reference strain for comparison. These strains were strains MSS 1, MSS 11, MRSA 9 and the ATCC 49775 reference strain.

[2] = system: methicillin-sensitive and methicillin-resistant strains of Staphylococcus; experiment: Minimum bactericidal concentration determination, Staphylococcus isolates (Example 1)
Procedure: Following determination of the MIC using the 96 well MIC plate, a variation of the drop plate method was used to determine minimum bactericidal concentration (MBC) for each of the test compounds. These were analysed using samples taken from the MIC plate following incubation. […] Each concentration was pipetted in duplicate with duplicates being pipetted on an inner ring of drops. The plates were incubated at 37° C. overnight and assessed the following day for growth. The MBC was defined as the concentration at which 99.9% of colonies were eradicated, which was visually assessed by a lack of growth on the agar where the drop was placed.

Staphylococcus aureus = experiment: Skin wound infection model in mice, topical ointment (Example 5); format: in vivo; settings: LP1369 ointment 20 mg/g, 11 treatments
From the text: Preliminary studies prior to the conduct to the current study established a new method of skin infection arising from a detailed study of the models mentioned above. Briefly, study mice are anaesthetised, a patch of dorsal skin is clipped to reveal the skin and a circular area of skin is removed with a hand held punch, leaving a wound on the dorsum with a central cavity. The wound is infected with a known number of the challenge organism. Approximately four to six hours after infection, the wound is either treated topically with a vehicle formulation or an active formulation. The infected skin wound is retreated every 12 hours for a total of 11 treatments. Mice are humanely euthanased, the area of the original infected wound is dissected and removed and its bacterial content quantified by standard microbiologic tests. In this way, the change in bacterial concentration due to treatment with the active formulation can be readily determined by examining the reduction in bacterial burden compared with the vehicle control.
Fresh cultures of bacteria were grown on Sheep Blood Agar at 37° C. for 16-18 hours. […] The density of the suspension was checked by measuring absorbance at 600 nm, using a spectrophotometer with saline as a blank, to confirm the target density at a reading of approximately 0.100, consistent with a bacterial density of 2.5×10^8 CFU/ml. […]

red blood cells = experiment: Eukaryotic cell toxicity testing, erythrocyte haemolysis; format: cell-based; settings: 2% blood cell solution, one hour at 37° C.
Procedure: Erythrocyte haemolysis was used in order to test the toxicity of all five compounds to eukaryotic cells. Blood samples were washed using 9.1 g/L saline solution and centrifuged at 2500 rpm for 10 minutes. This process was repeated until cellular debris and partially lysed cells were removed from solution. 2 mL of the remaining blood cells were suspended in 98 mL of 9.1 g/L saline solution to produce a 2% blood cell solution, which was dispensed in 90 μL volumes into the wells of a 96 well plate. The compound solutions as well as chloramphenicol were prepared from stock solution to a concentration of 256 μg/mL (as described above). Chloramphenicol was used as a negative control for erythrocyte lysis while a ready to use solution of amphotericin B was used as a positive control. 90 μL of the compounds and controls were added to the final well in different rows. These compounds were serially diluted across the row in order to test the different concentrations of antimicrobials. Wells containing only 2% blood solution were also used to assess variation between readings from different columns on the 96 well plates. These tests were incubated at 37° C. for one hour and then assessed for lysis both visually and using a microplate reader to measure optical density at 600 nm wavelengths. Each test was performed in duplicate and then repeated in quadruplicate in order to ensure accuracy.

CC[C@@H](C(=O)[C@@H](C)[C@@H](O)[C@H](C)CCc1ccc(C)c(O)c1C(=O)O)[C@H]1O[C@](CC)([C@H]2CC[C@](O)(CC)[C@H](C)O2)C[C@@H]1C [LP 1369, Lasalocid]
growth (optical density) compared to growth control [1]: prevented the growth | bactericidal activity (MBC testing) ([2]; lower concentrations): some bactericidal activity in lower concentrations | MBC50 rank among test compounds ([2]; methicillin-sensitive isolates): lowest MBC50 values | strain type for which bactericidal activity was more consistent ([2]; methicillin-sensitive versus methicillin-resistant strains): more consistently for methicillin-sensitive strains | decrease in bacterial load compared to vehicle control mice (Staphylococcus aureus): statistically significant | reduction of the bacterial population (Staphylococcus aureus; every 12 hours, versus vehicle): greater than 99% | concentration at which lysis was most visually evident (red blood cells): 64000 ng/mL | concentration range in which some lysis of cells was observed (red blood cells): 32000 to 128000 ng/mL
